# Test results published in PubChem BioAssay (NCI).
# Several values for one entry are separate records, joined by “and”; a condition that tells them apart may be missing. Equal entries are not always repeated.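 96-well plates; 48 h exposure; 5 concentrations. Endpoints by linear interpolation between flanking doses. Not reached: highest tested concentration assigned. The concentration for 50% growth inhibition is given as GI50. TGI denotes the concentration required for complete inhibition of growth.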
# Tests used:
# Assay in all cases: inhibition of tumour cell growth, NCI panel, 48 h
# KM12 colon = tested on: KM12 colon
# SNB-75 CNS = tested on: SNB-75 CNS
# NCI/ADR-RES ovarian = tested on: NCI/ADR-RES ovarian
# UO-31 renal = tested on: UO-31 renal
# NCI-H23 lung = tested on: NCI-H23 lung
# MDA-MB-231 breast = tested on: MDA-MB-231 breast
# SF-268 CNS = tested on: SF-268 CNS
# A549 NSCLC = tested on: A549 NSCLC
# SF-539 CNS = tested on: SF-539 CNS
# COLO 205 colon = tested on: COLO 205 colon
Compound,TGI (KM12 colon) [µM],TGI (SNB-75 CNS) [µM],TGI (NCI/ADR-RES ovarian) [µM],TGI (UO-31 renal),TGI (NCI-H23 lung),TGI (MDA-MB-231 breast) [µM],TGI (SF-268 CNS) [µM],TGI (A549 NSCLC) [µM],TGI (SF-539 CNS) [µM],TGI (COLO 205 colon),GI50 (KM12 colon) [µM],GI50 (SF-268 CNS) [µM],GI50 (SF-539 CNS) [µM],GI50 (A549 NSCLC) [µM],GI50 (NCI/ADR-RES ovarian) [µM],GI50 (UO-31 renal) [µM],GI50 (NCI-H23 lung) [µM],GI50 (MDA-MB-231 breast) [µM],GI50 (COLO 205 colon) [µM]
O=C(O)CSc1ccc([N+](=O)[O-])cc1[N+](=O)[O-],> 100,> 100,> 100,> 100 µM,> 100 µM,> 100,> 100,> 100,–,–,–,–,–,–,–,–,–,–,–
CN(C)CC[N+]1=Nc2cccc3cccc(c23)N1,> 100,> 100,–,> 60.9 µM,> 100 µM,–,> 100,> 100,> 100,> 71.2 µM,–,–,–,–,–,–,–,–,–
CN1C(=O)C(C)(C)C2(SC(C)(C)C2(C)C)N(C)C1=S (stereo not drawn),> 100,> 100,–,> 100 µM,> 100 µM,–,> 100,> 100,> 100,> 100 µM,–,–,–,–,–,–,–,–,–
CCCCCCCCCCCCCCCCCC(CCCCCCCCCCCCCCCCC)OP(=O)(O)O,> 100,> 100,–,> 100 µM,> 100 µM,–,> 100,> 100,–,> 100 µM,–,–,–,–,–,–,–,–,–
Cc1cc(C)nc(NS(=O)(=O)c2ccc(NC(=O)c3ccc(Cl)c4c(Nc5ccc(S(=O)(=O)Nc6nc(C)cc(C)n6)cc5)c5ccccc5nc34)cc2)n1,> 100,> 100,–,57.4 µM,39.7 µM,–,> 100,86.1,–,> 100 µM,–,–,–,–,–,–,–,–,–
O=CN/C=C/c1cc(O)ccc1O,> 100,98.2,42.1,46.3 µM,43.7 µM,–,37.5,> 85.4,43.9,26.5 µM,–,–,–,–,–,–,–,–,–
O=C(COc1ccc(Br)cc1Br)N1N=C(c2ccc([N+](=O)[O-])o2)CC1(O)c1ccccc1 (stereo not drawn),45.3,45,–,21.3 µM,36 µM,–,36,72.2,–,7.05 µM,–,–,–,–,–,–,–,–,–
COc1ccccc1C12OC(=O)C1(C)Oc1ccccc1C2=O (stereo not drawn),> 100,> 100,–,> 100 µM,> 100 µM,–,> 100,> 100,> 100,> 100 µM,–,–,–,–,–,–,–,–,–
CCOC(=O)CN1C(=O)c2cccc3cc([N+](=O)[O-])cc(c23)C1=O,8.73,22.2,–,27 µM,4.52 µM,–,11.1,26.6,16,–,–,–,–,–,–,–,–,–,–
C/C(CC(=O)CCC(=O)Nc1cccc(C(F)(F)F)c1)=N\NC(=O)NN,> 100,> 100,–,> 100 µM,> 100 µM,–,> 100,> 100,> 100,> 100 µM,–,–,–,–,–,–,–,–,–
Brc1ccc(N=c2nc3ccccn3n3nc(-c4ccccc4)cc23)cc1,> 100,> 100,–,> 100 µM,> 100 µM,–,> 100,> 100,> 100,> 100 µM,–,–,–,–,–,–,–,–,–
COC1CCC2C(NS(=O)(=O)c3ccc(C)cc3)CCCC2O1 (stereo not drawn) (tested in a mixture with another compound),> 34.5,> 34.5,–,> 34.5 µM,> 34.5 µM,–,> 34.5,> 34.5,> 34.5,–,–,–,–,–,–,–,–,–,–
COC(=O)[C@@H]1[C@H](O)[C@H](C)[C@H](O)[C@@](C)(O)/C=C\C=C(C)C(=O)Nc2c(C)c(OC(C)=O)c3c(c2O)C(=O)C(C)=C2OCOC(=C23)C(C)=C[C@@](C)(O)[C@H](O)[C@@H](C)[C@H]1OC(C)=O,> 100,> 100,–,> 100 µM and 66.9 µM,> 100 µM and 66.9 µM and 47.8 µM,–,> 100,> 100,> 100,> 100 µM and 29 µM and 37.3 µM,> 66.9,> 66.9,> 66.9,> 66.9,–,–,–,–,–
CC(C)=CC(=O)C1c2cccc(O)c2C(=O)c2c(O)cc(C)cc21 (stereo not drawn),3.17,4.68,–,3.74 µM,6.55 µM,–,5.3,4.31,3.04,3.4 µM,–,–,–,–,–,–,–,–,–
CCCCC(=O)OCC(=O)[C@]1(O)Cc2c(O)c3c(c(O)c2[C@@H](OC2CC(NC(=O)C(F)(F)F)C(O)C(C)O2)C1)C(=O)c1c(OC)cccc1C3=O (stereo partly drawn),> 70.8,4.37,–,3.45 µM,1.98 µM,> 100,4.99,3.83,2.98,3.69 µM,–,–,–,–,–,–,–,–,–
N#CC1C(C#N)C2(c3ccccc3)C(c3ccccc3)=NN(c3ccccc3)CC12 (stereo not drawn),> 100,> 100,–,> 100 µM,–,–,–,> 100,> 100,–,–,–,–,–,–,–,–,–,–
O=C(CC1(O)C(=O)Nc2c(Cl)cc(Cl)cc21)c1ccc(Br)cc1Br (stereo not drawn),27.9,36.6,–,29.5 µM,21.2 µM,41.3,24,57.4,36.5,16.9 µM,–,–,–,–,–,–,–,–,–
CN(C)C(=N)c1ccccc1,> 100,> 100,–,> 100 µM,> 100 µM,–,–,> 100,> 100,> 100 µM,–,–,–,–,–,–,–,–,–
CC(C)C/C(CC(=O)CCC(=O)Nc1ccccc1[N+](=O)[O-])=N\NC(=O)c1cc2ccccc2cc1O,> 100,> 100,–,> 100 µM,> 100 µM,–,> 100,> 100,82.3,69 µM,–,–,–,–,–,–,–,–,–
COc1cc(Cc2cnc(/N=C3\C(=O)N(CN4CCN(c5c(F)cc6c(=O)c(C(=O)O)cn(C7CC7)c6c5OC)CC4C)c4ccc(F)cc43)nc2N)cc(OC)c1OC (stereo not drawn),35.9,–,29.4,> 100 µM,42.9 µM,30.3,57.7,> 100,47.5,58.8 µM,13.7,18.2,19.9,27,11.8,31.7,18.1,11.8,15
COC1(OC)CCC2C1C1CCC(OC)(OC)C21 (stereo not drawn),> 50,> 50,–,> 50 µM,> 50 µM,–,> 50,> 50,> 50,> 50 µM,–,–,–,–,–,–,–,–,–
CC1=C(C(=O)NCc2ccccc2)C(/C=C/c2ccccc2)C(C(=O)NCc2ccccc2)=C(C)N1,> 100,> 100,–,> 100 µM,> 100 µM,–,> 100,> 100,> 100,–,–,–,–,–,–,–,–,–,–
